Experimental data published in the supplement of paper PMC11061612.

Key:
[1] = compound: CN(C)CCCOc1ccc(-c2ccc3ncc4c(c3c2)n(C2CCOCC2)c(=O)n4C)cn1 [AZD0156]; details: max 3 µM
Method in brief: (§1)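 Cancer cell lines were plated in 1536-well plates in 7.5 μl of DMEM/F12 or RPMI with 10% FBS and kept 24 hours at 37°C and 5% CO2 before 72 hours of dosing, with final DMSO typically 0.2%. CellTiter-Glo 2.0 luminescence measured viability, scaled between blank-well and DMSO-well means. Dose responses were fitted to a two-parameter logistic curve with a non-linear mixed effects model. This fit gives the single-agent IC50.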

[2] = compound: CS(=O)(=O)CCNCc1ccc(-c2ccc3ncnc(Nc4ccc(OCc5cccc(F)c5)c(Cl)c4)c3c2)o1 [Lapatinib]; details: max 10 µM
Method in brief: as §1

[3] = compound: C[C@@H](c1ccc2nccn2c1)n1nnc2ncc(-c3cnn(C)c3)nc21 [Savolitinib]; details: max 1 µM
Method in brief: as §1

[4] = compound: CC1=CN2[C@@H](C1)C=NC3=CC(=C(C=C3C2=O)OC)OCCCCCOC4=C(C=C5C(=C4)N=C[C@@H]6CC(=CN6C5=O)C)OC [SG3199]; details: max 0.001 µM
Method in brief: as §1

[5] = compound: C[C@@H](Oc1cc(-c2cnn(C3CCNCC3)c2)cnc1N)c1c(Cl)ccc(F)c1Cl [Crizotinib]; details: max 10 µM
Method in brief: as §1

[6] = compound: CC(=O)c1c(C)c2cnc(Nc3ccc(N4CCNCC4)cn3)nc2n(C2CCCC2)c1=O [Palbociclib]; details: max 10 µM
Method in brief: as §1

[7] = compound: COc1cccc(OCCCN)c1-c1cc(Nc2cnc(C#N)cn2)n[nH]1 [Prexasertib]; details: max 1 µM
Method in brief: as §1

[8] = compound: C1CN(CCC1(C(=O)N[C@@H](CCO)C2=CC=C(C=C2)Cl)N)C3=NC=NC4=C3C=CN4 [Capivasertib]
Method in brief: as §1

[9] = compound: Cc1nc(-c2cn3c(n2)-c2ccc(-c4cnn(C(C)(C)C(N)=O)c4)cc2OCC3)n(C(C)C)n1 [Taselisib]; details: max 10 µM
Method in brief: as §1

[10] = compound: Cc1c2c(nn1C)CSCc1cc(n(C)n1)CSc1cc(c3ccccc3c1)OCCCc1c(C(=O)O)n(C)c3c-2c(Cl)ccc13 [AZD5991]; details: max 1 µM
Method in brief: as §1

[11] = compound: C[C@@H](Nc1cc(F)cc(F)c1)c1cc(C(=O)N(C)C)cc2c(=O)cc(N3CCOCC3)oc12 [AZD8186]; details: max 3 µM
Method in brief: as §1

[12] = compound: CC(=O)Nc1cccc(-n2c(=O)n(C3CC3)c(=O)c3c(Nc4ccc(I)cc4F)n(C)c(=O)c(C)c32)c1 [Trametinib]; details: max 1 µM
Method in brief: as §1

[13] = compound: CCN(CCO)CCCOc1ccc2c(Nc3cc(CC(=O)Nc4cccc(F)c4)[nH]n3)ncnc2c1 [AZD2811]; details: max 1 µM
Method in brief: as §1

[14] = compound: CC1(C)CCC(CN2CCN(c3ccc(C(=O)NS(=O)(=O)c4ccc(NCC5CCOCC5)c([N+](=O)[O-])c4)c(Oc4cnc5[nH]ccc5c4)c3)CC2)=C(c2ccc(Cl)cc2)C1 [Venetoclax]; details: max 1 µM
Method in brief: as §1

[15] = compound: COc1cccc2c1C(=O)c1c(O)c3c(c(O)c1C2=O)C[C@@](O)(C(=O)CO)C[C@@H]3O[C@H]1C[C@H](N)[C@H](O)[C@H](C)O1 [Doxorubicin]; details: max 1 µM
Method in brief: as §1

[16] = compound: Cn1cnc2c(F)c(Nc3ccc(Br)cc3Cl)c(C(=O)NOCCO)cc21 [Selumetinib]; details: max 10 µM
Method in brief: as §1

[17] = compound: COc1cc2ncnc(Nc3ccc(F)c(Cl)c3)c2cc1OCCCN1CCOCC1 [Gefitinib]; details: max 10 µM
Method in brief: as §1

[18] = compound: Cc1cc2ncnn2cc1Nc1ncc2c(n1)n(C1CCOCC1)c(=O)n2C [AZD7648]; details: max 10 µM
Method in brief: as §1

[19] = compound: COc1nnc2ccc(N3CCC(c4ccc(OCCN5CCN(C)C(=O)[C@H]5C)cc4)CC3)nn12 [AZD5153]; details: max 1 µM
Method in brief: as §1

[20] = compound: CN(CC[C@H](CSC1=CC=CC=C1)NC2=C(C=C(C=C2)S(=O)(=O)NC(=O)C3=CC=C(C=C3)N4CCC(CC4)[C@H](C5=CC=CC=C5C6=CC=C(C=C6)Cl)O)S(=O)(=O)C(F)(F)F)CCO [AZD4320]; details: max 1 µM
Method in brief: as §1

[21] = compound: COc1cc(Nc2ncc3c(n2)-c2ccc(Cl)cc2C(c2c(F)cccc2OC)=NC3)ccc1C(=O)O [Alisertib]; details: max 10 µM
Method in brief: as §1

[22] = compound: CCc1c2c(nc3ccc(O)cc13)-c1cc3c(c(=O)n1C2)COC(=O)[C@]3(O)CC [SN-38]; details: max 0.3 µM
Method in brief: as §1

[23] = compound: C[C@@H]1COCCN1C2=NC(=NC(=C2)C3(CC3)[S@](=N)(=O)C)C4=C5C=CNC5=NC=C4 [AZD6738]; details: max 10 µM
Method in brief: as §1

[24] = compound: C=CCn1c(=O)c2cnc(Nc3ccc(N4CCN(C)CC4)cc3)nc2n1-c1cccc(C(C)(C)O)n1 [AZD1775]; details: max 3 µM
Method in brief: as §1

[25] = compound: CC1=C(C(=CC=C1)Cl)NC(=O)C2=CN=C(S2)NC3=CC(=NC(=N3)C)N4CCN(CC4)CCO [Dasatinib]; details: max 2 µM
Method in brief: as §1

[26] = compound: CC(C)n1c(=O)n(C)c2cnc3cc(F)c(-c4ccc(OCCCN5CCCCC5)nc4)cc3c21 [AZD1390]; details: max 0.3 µM
Method in brief: as §1

[27] = compound: O=C(c1cc(Cc2n[nH]c(=O)c3ccccc23)ccc1F)N1CCN(C(=O)C2CC2)CC1 [Olaparib]
Method in brief: as §1

Cell Line	IC50, cell viability 72 h [1]	IC50, cell viability 72 h [2]	IC50, cell viability 72 h [3]	IC50, cell viability 72 h [4]	IC50, cell viability 72 h [5]	IC50, cell viability 72 h [6]	IC50, cell viability 72 h [7]	IC50, cell viability 72 h ([8]; max 10 µM)	IC50, cell viability 72 h [9]	IC50, cell viability 72 h [10]	IC50, cell viability 72 h [11]	IC50, cell viability 72 h [12]	IC50, cell viability 72 h [13]	IC50, cell viability 72 h [14]	IC50, cell viability 72 h [15]	IC50, cell viability 72 h [16]	IC50, cell viability 72 h [17]	IC50, cell viability 72 h [18]	IC50, cell viability 72 h [19]	IC50, cell viability 72 h [20]	IC50, cell viability 72 h [21]	IC50, cell viability 72 h [22]	IC50, cell viability 72 h [23]	IC50, cell viability 72 h [24]	IC50, cell viability 72 h [25]	IC50, cell viability 72 h [26]	IC50, cell viability 72 h ([27]; max 10 µM)	IC50, cell viability 72 h ([8]; max 3 µM)	IC50, cell viability 72 h ([27]; max 3 µM)
697 (B-Lymphoblastic Leukemia)	2.07 µM	6.95 µM	> 1 µM	> 0.001 µM	1.1 µM	0.263 µM	0.0045 µM	3.24 µM	3.94 µM	0.0489 µM	> 3 µM	0.662 µM	0.0146 µM	0.0143 µM	0.0173 µM	> 10 µM	> 10 µM	9.41 µM	0.0142 µM	0.00675 µM	0.0333 µM	0.00334 µM	0.336 µM	0.149 µM	0.677 µM	> 0.3 µM	1.41 µM		
BB49-HNC (Head and Neck Carcinoma)	> 3 µM																							0.309 µM				1.99 µM	> 3 µM
C3A (Hepatocellular Carcinoma)	> 3 µM	> 10 µM	> 1 µM	> 0.001 µM	> 10 µM	> 10 µM	0.524 µM	> 10 µM	> 10 µM	> 1 µM	> 3 µM	0.657 µM	> 1 µM	> 1 µM	> 1 µM	7.96 µM	> 10 µM	> 10 µM	> 1 µM	> 1 µM	> 10 µM	0.143 µM	> 10 µM	2.48 µM	> 2 µM	> 0.3 µM	> 10 µM		
CAL-78 (Chondrosarcoma)	> 3 µM	> 10 µM	> 1 µM	> 0.001 µM	> 10 µM	> 10 µM	0.226 µM	> 10 µM	> 10 µM	0.261 µM	> 3 µM	> 1 µM	> 1 µM	> 1 µM	> 1 µM	> 10 µM	> 10 µM	> 10 µM	> 1 µM	> 1 µM	1.78 µM	0.0541 µM	> 10 µM	0.898 µM	> 2 µM	> 0.3 µM	> 10 µM		
CFPAC-1 (Pancreatic Carcinoma)	> 3 µM	> 10 µM	> 1 µM	> 0.001 µM	> 10 µM	> 10 µM	0.108 µM	> 10 µM	5.77 µM	> 1 µM	> 3 µM	> 1 µM	> 1 µM	> 1 µM	> 1 µM	> 10 µM	> 10 µM	> 10 µM	> 1 µM	> 1 µM	> 10 µM	0.0261 µM	> 10 µM	1.44 µM	> 2 µM	> 0.3 µM	> 10 µM		
